Reference: patent publication US20240254119A1 (THIRD HARMONIC BIO, INC., priority 2022, published 2024)

Assays:
[1] = molecular target: T1, wtKIT (Homo sapiens, UniProt P10721); assay: Caliper biochemical assay, wtKIT; conditions: Table 6, read-out: KIT Biochemical IC50 avg
T1 construct: 1888289AM in the reaction mixtures
Protocol: Enzyme, substrate, and cofactors (ATP and Mn^2+) are combined in a well of a microtiter plate and incubated for 3 hours at 25° C. At the end of the incubation, the reaction is quenched by the addition of an EDTA-containing buffer. Substrate and product are separated electrophoretically using the microfluidic-based LabChip 3000 Drug Discovery System from Caliper Life Sciences* and quantitated by fluorescence intensity.
The substrate used in the CSF-1R and PDGFRα assay is FAM-[…]-CONH2 (FAM is carboxyfluorescein). Peptide should be >95% purity. The substrate for the KIT assay is FAM-[…]-NH2.
• 1. To a well of a 384-well plate add 5 μL of 2× enzyme buffer (or control) • 2. Add 100 nL of 100× compound. • 3. Add 5 μL of 2× substrate buffer. • 4. Incubate plate at 25° C. for 3 hours. • 5. Add 10 uL of […]. • 6. Read plate LabChip 3000 Drug Discovery System
• 3 hours at 25° C. where 100% Inhibitor: No enzyme.
• 100 mM HEPES, pH 7.5 0.1% BSA • 0.01% Triton X-100 • 1 mM DTT • 10 mM MnCl2 • 10 μM Sodium Orthovanadate • 10 μM Beta-Glycerophosphate • 400 μM ATP • 1% DMSO (from compound) • 1 μM FAM-[…]-CONH2 5.0 nM wtKIT Enzyme (1888289AM)* • *Specific activity may vary from lot to lot. Enzyme concentration may need to be adjusted to yield 10-20% conversion of substrate to product.

[2] = Kinetic solubility assay; type: physicochemical; conditions: kinetic solubility, 50 mM PB (pH 7.4), shaken 24 hours at RT
In short: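 Test compounds from 10 mM DMSO stock were diluted in 50 mM phosphate buffer, pH 7.4, and shaken for 24 h at RT. After PTFE filtration and centrifugation, filtrate concentration was quantified by UPLC-UV/HPLC-UV against a standard curve.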

[3] = molecular target: T2, BCRP (BCRP-MDCKII monolayer) (Homo sapiens, UniProt Q9UNQ0); assay: MDCKII-BCRP bidirectional transport assay; type: in vitro ADME; conditions: for MDCK-BCRP: Papp A-B: apical to basolateral
T2 construct: host or cells: MDCKII (canine kidney) cells
T2 sequence (Q9UNQ0 1-655): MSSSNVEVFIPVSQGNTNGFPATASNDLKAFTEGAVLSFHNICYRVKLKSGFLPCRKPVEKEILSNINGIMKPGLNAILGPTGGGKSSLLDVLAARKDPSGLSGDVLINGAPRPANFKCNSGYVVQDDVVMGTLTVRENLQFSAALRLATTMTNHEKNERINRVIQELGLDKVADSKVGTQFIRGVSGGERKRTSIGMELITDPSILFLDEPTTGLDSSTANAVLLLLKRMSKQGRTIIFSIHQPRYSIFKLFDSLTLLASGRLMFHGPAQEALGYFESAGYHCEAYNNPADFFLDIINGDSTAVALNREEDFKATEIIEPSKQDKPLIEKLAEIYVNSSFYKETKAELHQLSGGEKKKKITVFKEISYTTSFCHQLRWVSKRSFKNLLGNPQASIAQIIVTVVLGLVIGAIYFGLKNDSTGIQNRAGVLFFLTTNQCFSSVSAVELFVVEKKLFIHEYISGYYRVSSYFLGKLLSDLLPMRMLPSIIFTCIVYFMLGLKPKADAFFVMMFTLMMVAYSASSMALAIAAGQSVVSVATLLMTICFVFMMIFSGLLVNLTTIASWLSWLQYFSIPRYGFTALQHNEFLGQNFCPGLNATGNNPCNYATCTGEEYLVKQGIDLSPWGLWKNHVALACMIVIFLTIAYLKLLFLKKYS
Protocol: Exemplary compounds were tested for cell permeability in Caco-2, MDCKII-MDR1 and MDCKII-BCRP cell lines with efflux transporter engagement inferred from the efflux ratios determined. Procedures and results are described below. […] This feature of certain compounds is in part due to efflux transporter engagement. See, for instance, exemplary such compounds included in data tables below.
The reference compound Teriflunomide and test compounds are tested in the bidirectional assay. Test compound and reference compounds incubations were tested in duplicates.
The transport assay can be performed between days 12 to day 15 using ready to use PreadyPort™ BCRP-MDCKII monolayer in 96 well plate.
The medium was aspirated from the apical and basal compartments and 75 and 235 μL assay buffer was added to each of the 96 wells of apical and basal compartments of the PreadyPort™ plate.
The plates were pre-incubated for 15 min at 37° C. with 5% CO2 in humidified atmosphere. After preincubation the assay buffer was removed from the apical and basal inserts of the plate.
In apical to basolateral (A→B) transport, 75 μL of test or reference compound working solution to apical inserts and 235 μL of blank assay buffer were added to the corresponding basal compartments.
In basolateral to apical transport, 235 μL of test or reference compound working solution to the basal compartments and 75 μL of blank assay buffer solution were added to corresponding apical inserts.
The sandwich plate was incubated for 120 min in incubator at 5% CO2 and 37° C.
After incubation, 60 μL was transferred from receiver and donor compartments to collection plate.
For donor and C0 samples 20-fold dilution was accomplished by mixing 60 μL of collected sample with 1140 μL of transport buffer and from that solution aliquot 60 μL transfer Both receiver and donor samples were processed by adding […] of acetonitrile containing internal standard (60 μL of sample+240 μL of acetonitrile containing glyburide as internal standard, 125 ng/mL) and vortexing the samples. The compound concentration was measured in all samples using respective calibration standards by LC-MS/MS.
Calculate the Papp and recovery using the given formula:
[formula] [formula] • Where: dQ/dt=Permeability rate in μM/see • C0=Initial concentration in μM • A=Membrane surface area (0.33 cm^2) • V=Volume of receiver chamber • Cend, a=concentration in acceptor well at end of incubation • Cend, d=concentration in donor well at end of incubation • CHBSS=loading concentration measured in HBSS

T1 sequence (P10721 26-976): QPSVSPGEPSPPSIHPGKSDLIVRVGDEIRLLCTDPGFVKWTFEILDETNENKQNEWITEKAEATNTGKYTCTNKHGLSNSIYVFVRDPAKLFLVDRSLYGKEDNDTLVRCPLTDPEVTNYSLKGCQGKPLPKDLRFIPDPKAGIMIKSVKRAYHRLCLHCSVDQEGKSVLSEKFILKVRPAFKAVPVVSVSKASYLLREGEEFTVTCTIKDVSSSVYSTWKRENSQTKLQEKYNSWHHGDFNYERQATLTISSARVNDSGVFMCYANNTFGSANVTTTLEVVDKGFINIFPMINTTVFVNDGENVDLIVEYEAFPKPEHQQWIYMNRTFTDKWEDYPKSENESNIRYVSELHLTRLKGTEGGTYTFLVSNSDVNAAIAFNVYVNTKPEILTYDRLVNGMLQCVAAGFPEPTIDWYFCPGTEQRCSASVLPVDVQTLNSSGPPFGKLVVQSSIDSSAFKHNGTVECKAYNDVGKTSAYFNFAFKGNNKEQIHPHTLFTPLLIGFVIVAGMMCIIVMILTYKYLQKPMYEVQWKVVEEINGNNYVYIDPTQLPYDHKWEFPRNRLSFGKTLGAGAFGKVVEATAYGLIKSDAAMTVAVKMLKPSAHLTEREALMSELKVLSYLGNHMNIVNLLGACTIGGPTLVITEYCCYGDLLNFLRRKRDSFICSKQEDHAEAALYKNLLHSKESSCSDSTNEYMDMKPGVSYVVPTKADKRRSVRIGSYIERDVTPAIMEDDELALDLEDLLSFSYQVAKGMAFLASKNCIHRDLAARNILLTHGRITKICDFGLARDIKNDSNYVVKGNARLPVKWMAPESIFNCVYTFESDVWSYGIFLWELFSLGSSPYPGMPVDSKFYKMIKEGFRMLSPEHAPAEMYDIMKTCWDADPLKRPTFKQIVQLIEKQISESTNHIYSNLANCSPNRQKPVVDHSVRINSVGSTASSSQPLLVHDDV

| SMILES | IC50 [1] | Solubility (μM) [2] | MDCK-BCRP: Efflux Ratio [3] | MDCK-BCRP: Papp A-B [3] |
| --- | --- | --- | --- | --- |
| Cc1ccc(-c2noc(C3CC(O)(c4ccccc4)C3)n2)cc1NC(=O)c1cnc2ccccn12 (centres unmarked) [Compound I-349] | ≤ 50 nM | **** (a solubility less than or equal to 2 μM) | 2.56 | 16.6 10^−6 cm/s |
| Cc1ccc(-c2noc([C@H]3C[C@@H]3F)n2)cc1NC(=O)c1cnc2cc(Nc3c(C)cccc3C)ccn12 [Compound I-293] | 50 to 500 nM | *** (a solubility greater than 2 μM and less than or equal to 10 μM) | 4.55 | 0.02 10^−6 cm/s |
| COCC1(c2nc(-c3ccc(C)c(NC(=O)c4cnc5ccccn45)c3)no2)CC(F)(F)C1 [Compound I-378] | ≤ 50 nM | **** (a solubility less than or equal to 2 μM) | 0.77 | 16 10^−6 cm/s |
| Cc1ccc(-c2noc(C3(C)CC(F)C3)n2)cc1NC(=O)c1cnc2ccccn12 (centres unmarked) [Compound I-386] | ≤ 50 nM | **** (a solubility less than or equal to 2 μM) | 1.56 | 11.4 10^−6 cm/s |
| COC(=O)C1CC(c2nc(-c3ccc(C)c(NC(=O)c4cnc5ccccn45)c3)no2)C1 (centres unmarked) [Compound I-342] | ≤ 50 nM | *** (a solubility greater than 2 μM and less than or equal to 10 μM) | 0.47 | 30 10^−6 cm/s |
| Cc1ccc(-c2noc(C3CN(C(N)=O)C3)n2)cc1NC(=O)c1cnc2ccccn12 [Compound I-268] | 50 to 500 nM | * (a solubility greater than 50 μM) | 11.6 | 0.31 10^−6 cm/s |
| Cc1ccc(-c2noc(C3CC(O)(C4(O)CCC4)C3)n2)cc1NC(=O)c1cnc2ccccn12 (centres unmarked) [Compound I-357] | 50 to 500 nM | *** (a solubility greater than 2 μM and less than or equal to 10 μM) | 63.9 | 0.47 10^−6 cm/s |
| Cc1ccc(-c2noc([C@H]3CCN(C(=O)OC(C)(C)C)C3)n2)cc1NC(=O)c1cnc2ccccn12 [Compound I-398] | 50 to 500 nM | *** (a solubility greater than 2 μM and less than or equal to 10 μM) | 1.33 | 20.3 10^−6 cm/s |
| CC(C)(C)OC(=O)N1CC(c2nc(-c3ccc(Br)c(NC(=O)c4cnc5ccccn45)c3)no2)C1 [Compound I-332] | 50 to 500 nM | **** (a solubility less than or equal to 2 μM) | 1.75 | 2.63 10^−6 cm/s |
| COC(=O)N1CC(c2nc(-c3ccc(Br)c(NC(=O)c4cnc5ccccn45)c3)no2)C1 [Compound I-338] | ≤ 50 nM | **** (a solubility less than or equal to 2 μM) | 0.82 | 23.1 10^−6 cm/s |
| COC1(OC)CC(c2nc(-c3ccc(C)c(NC(=O)c4cnc5ccccn45)c3)no2)C1 [Compound I-346] | ≤ 50 nM | *** (a solubility greater than 2 μM and less than or equal to 10 μM) | 1.33 | 40.1 10^−6 cm/s |
| COC(=O)C1CC(c2nc(-c3ccc(C)c(NC(=O)c4cnc5ccccn45)c3)no2)C1 (centres unmarked) [Compound I-366] | ≤ 50 nM | **** (a solubility less than or equal to 2 μM) | 1.31 | 10.2 10^−6 cm/s |
| Cc1ccc(-c2noc(C3CC4(COCCO4)C3)n2)cc1NC(=O)c1cnc2ccccn12 (centres unmarked) [Compound I-343] | ≤ 50 nM | ** (a solubility greater than 10 μM and less than or equal to 50 μM) | 2.36 | 8.04 10^−6 cm/s |
| Cc1ccc(-c2noc(C3CCN3C(=O)OC(C)(C)C)n2)cc1NC(=O)c1cnc2ccccn12 (racemic) [Compound I-395] | 50 to 500 nM | ** (a solubility greater than 10 μM and less than or equal to 50 μM) | 3.28 | 19 10^−6 cm/s |
| Cc1ccc(-c2noc(C3(C)CC(F)(F)C3)n2)cc1NC(=O)c1cnc2ccccn12 [Compound I-385] | ≤ 50 nM | **** (a solubility less than or equal to 2 μM) | 1.05 | 14.3 10^−6 cm/s |
| Cc1ccc(-c2noc(C3CCCN3)n2)cc1NC(=O)c1cnc2ccccn12 (racemic) [Compound I-391] | ≤ 50 nM | * (a solubility greater than 50 μM) | 12.1 | 2.13 10^−6 cm/s |
| Cc1ccc(-c2noc(C3(C(F)F)CC(F)(F)C3)n2)cc1NC(=O)c1cnc2ccccn12 [Compound I-355] | ≤ 50 nM | **** (a solubility less than or equal to 2 μM) | 0.91 | 12.3 10^−6 cm/s |
